Results: article PMC11420776 (RSC Advances, 2024)

How the values were obtained:
[1] = tested on: LOX IMIV (melanoma); assay: NCI 60-cell one-dose antiproliferative screen; assay type: cell-based, human; settings: one dose 10 μM
[2] = tested on: OVCAR-3 (ovarian cancer); assay: NCI 60-cell one-dose antiproliferative screen; assay type: cell-based, human; settings: one dose 10 μM
[3] = tested on: NCI-H226 (NSC lung cancer); assay: NCI 60-cell one-dose antiproliferative screen; assay type: cell-based, human; settings: one dose 10 μM
[4] = tested on: NCI-H23 (NSC lung cancer); assay: NCI 60-cell one-dose antiproliferative screen; assay type: cell-based, human; settings: one dose 10 μM
[5] = tested on: COLO-205 (colon cancer); assay: NCI 60-cell one-dose antiproliferative screen; assay type: cell-based, human; settings: one dose 10 μM
[6] = tested on: HCT-116 (colon cancer); assay: NCI 60-cell one-dose antiproliferative screen; assay type: cell-based, human; settings: one dose 10 μM
[7] = tested on: UO-31 (renal cancer); assay: NCI 60-cell one-dose antiproliferative screen; assay type: cell-based, human; settings: one dose 10 μM
[8] = tested on: MDA-MB-435 (melanoma); assay: NCI 60-cell one-dose antiproliferative screen; assay type: cell-based, human; settings: one dose 10 μM
[9] = tested on: IGROV1 (ovarian cancer); assay: NCI 60-cell one-dose antiproliferative screen; assay type: cell-based, human; settings: one dose 10 μM
[10] = tested on: MDA-MB-231/ATCC (breast cancer); assay: NCI 60-cell one-dose antiproliferative screen; assay type: cell-based, human; settings: one dose 10 μM
[11] = tested on: DU-145 (prostate cancer); assay: NCI 60-cell one-dose antiproliferative screen; assay type: cell-based, human; settings: one dose 10 μM
[12] = tested on: SK-MEL-2 (melanoma); assay: NCI 60-cell one-dose antiproliferative screen; assay type: cell-based, human; settings: one dose 10 μM
[13] = tested on: OVCAR-4 (ovarian cancer); assay: NCI 60-cell one-dose antiproliferative screen; assay type: cell-based, human; settings: one dose 10 μM
[14] = tested on: CAKI-1 (renal cancer); assay: NCI 60-cell one-dose antiproliferative screen; assay type: cell-based, human; settings: one dose 10 μM
[15] = tested on: HT29 (colon cancer); assay: NCI 60-cell one-dose antiproliferative screen; assay type: cell-based, human; settings: one dose 10 μM
[16] = tested on: SN12C (renal cancer); assay: NCI 60-cell one-dose antiproliferative screen; assay type: cell-based, human; settings: one dose 10 μM
[17] = tested on: HOP-62 (NSC lung cancer); assay: NCI 60-cell one-dose antiproliferative screen; assay type: cell-based, human; settings: one dose 10 μM
[18] = tested on: HCC-2998 (colon cancer); assay: NCI 60-cell one-dose antiproliferative screen; assay type: cell-based, human; settings: one dose 10 μM
[19] = tested on: HOP-92 (NSC lung cancer); assay: NCI 60-cell one-dose antiproliferative screen; assay type: cell-based, human; settings: one dose 10 μM
[20] = tested on: MCF7 (breast cancer); assay: NCI 60-cell one-dose antiproliferative screen; assay type: cell-based, human; settings: one dose 10 μM
[21] = tested on: RPMI-8226 (leukemia); assay: NCI 60-cell one-dose antiproliferative screen; assay type: cell-based, human; settings: one dose 10 μM
[22] = tested on: NCI-H522 (NSC lung cancer); assay: NCI 60-cell one-dose antiproliferative screen; assay type: cell-based, human; settings: one dose 10 μM
[23] = tested on: SK-MEL-28 (melanoma); assay: NCI 60-cell one-dose antiproliferative screen; assay type: cell-based, human; settings: one dose 10 μM
[24] = tested on: CCRF-CEM (leukemia); assay: NCI 60-cell one-dose antiproliferative screen; assay type: cell-based, human; settings: one dose 10 μM
[25] = tested on: KM12 (colon cancer); assay: NCI 60-cell one-dose antiproliferative screen; assay type: cell-based, human; settings: one dose 10 μM
[26] = tested on: 786-0 (renal cancer); assay: NCI 60-cell one-dose antiproliferative screen; assay type: cell-based, human; settings: one dose 10 μM
[27] = tested on: EKVX (NSC lung cancer); assay: NCI 60-cell one-dose antiproliferative screen; assay type: cell-based, human; settings: one dose 10 μM
[28] = tested on: SF-295 (CNS cancer); assay: NCI 60-cell one-dose antiproliferative screen; assay type: cell-based, human; settings: one dose 10 μM
[29] = tested on: MDA-MB-468 (breast cancer); assay: NCI 60-cell one-dose antiproliferative screen; assay type: cell-based, human; settings: one dose 10 μM
[30] = tested on: OVCAR-8 (ovarian cancer); assay: NCI 60-cell one-dose antiproliferative screen; assay type: cell-based, human; settings: one dose 10 μM
[31] = tested on: PC-3 (prostate cancer); assay: NCI 60-cell one-dose antiproliferative screen; assay type: cell-based, human; settings: one dose 10 μM
[32] = tested on: A498 (renal cancer); assay: NCI 60-cell one-dose antiproliferative screen; assay type: cell-based, human; settings: one dose 10 μM
[33] = tested on: HCT-15 (colon cancer); assay: NCI 60-cell one-dose antiproliferative screen; assay type: cell-based, human; settings: one dose 10 μM
[34] = tested on: UACC-62 (melanoma); assay: NCI 60-cell one-dose antiproliferative screen; assay type: cell-based, human; settings: one dose 10 μM
[35] = tested on: SF-539 (CNS cancer); assay: NCI 60-cell one-dose antiproliferative screen; assay type: cell-based, human; settings: one dose 10 μM
[36] = tested on: SNB-75 (CNS cancer); assay: NCI 60-cell one-dose antiproliferative screen; assay type: cell-based, human; settings: one dose 10 μM
[37] = tested on: HS 578T (breast cancer); assay: NCI 60-cell one-dose antiproliferative screen; assay type: cell-based, human; settings: one dose 10 μM
[38] = tested on: ACHN (renal cancer); assay: NCI 60-cell one-dose antiproliferative screen; assay type: cell-based, human; settings: one dose 10 μM
[39] = tested on: UACC-257 (melanoma); assay: NCI 60-cell one-dose antiproliferative screen; assay type: cell-based, human; settings: one dose 10 μM
[40] = tested on: NCI/ADR-RES (ovarian cancer); assay: NCI 60-cell one-dose antiproliferative screen; assay type: cell-based, human; settings: one dose 10 μM
[41] = tested on: SF-268 (CNS cancer); assay: NCI 60-cell one-dose antiproliferative screen; assay type: cell-based, human; settings: one dose 10 μM
[42] = tested on: 60 human tumor cell lines; assay: NCI 60-cell one-dose antiproliferative screen, whole panel; assay type: cell-based; settings: Homo sapiens, 60 cell, read-out: Mean inhibition (mean GI%)
[43] = tested on: SK-OV-3 (ovarian cancer); assay: NCI 60-cell one-dose antiproliferative screen; assay type: cell-based, human; settings: one dose 10 μM
[44] = tested on: TK-10 (renal cancer); assay: NCI 60-cell one-dose antiproliferative screen; assay type: cell-based, human; settings: one dose 10 μM
[45] = tested on: NCI-H460 (NSC lung cancer); assay: NCI 60-cell one-dose antiproliferative screen; assay type: cell-based, human; settings: one dose 10 μM
[46] = tested on: A549/ATCC (NSC lung cancer); assay: NCI 60-cell one-dose antiproliferative screen; assay type: cell-based, human; settings: one dose 10 μM
[47] = tested on: U251 (CNS cancer); assay: NCI 60-cell one-dose antiproliferative screen; assay type: cell-based, human; settings: one dose 10 μM
[48] = tested on: NCI-H322M (NSC lung cancer); assay: NCI 60-cell one-dose antiproliferative screen; assay type: cell-based, human; settings: one dose 10 μM
[49] = tested on: T-47D (breast cancer); assay: NCI 60-cell one-dose antiproliferative screen; assay type: cell-based, human; settings: one dose 10 μM
[50] = tested on: OVCAR-5 (ovarian cancer); assay: NCI 60-cell one-dose antiproliferative screen; assay type: cell-based, human; settings: one dose 10 μM
[51] = tested on: MALME-3M (melanoma); assay: NCI 60-cell one-dose antiproliferative screen; assay type: cell-based, human; settings: one dose 10 μM
[52] = tested on: M14 (melanoma); assay: NCI 60-cell one-dose antiproliferative screen; assay type: cell-based, human; settings: one dose 10 μM
[53] = tested on: SNB-19 (CNS cancer); assay: NCI 60-cell one-dose antiproliferative screen; assay type: cell-based, human; settings: one dose 10 μM
[54] = tested on: RXF 393 (renal cancer); assay: NCI 60-cell one-dose antiproliferative screen; assay type: cell-based, human; settings: one dose 10 μM
[55] = tested on: SW-620 (colon cancer); assay: NCI 60-cell one-dose antiproliferative screen; assay type: cell-based, human; settings: one dose 10 μM

How did the GI% [1] turn out when `O=[N+]([O-])c1ccc(C=NNc2ccc3nnc(-c4ccccc4)n3n2)cc1` [Compound 4b, 6-(2-(4-Nitrobenzylidene)hydrazinyl)-3-phenyl-[1,2,4]triazolo[4,3-b]pyridazine] was run?
Its GI% is “— (— GI% is below 15%)”.

And the GI% [2]?
The GI% was “— (— GI% is below 15%)”.

And the GI% [3]?
The GI% was “— (— GI% is below 15%)”.

What about the GI% [4] of the same compound?
The GI% was “— (— GI% is below 15%)”.

What about the GI% [5] of the same compound?
Its GI% is “— (— GI% is below 15%)”.

And the GI% [6]?
Its GI% is “— (— GI% is below 15%)”.

And the GI% [7]?
Its GI% is “— (— GI% is below 15%)”.

What about the GI% [8] of the same compound?
Its GI% is “— (— GI% is below 15%)”.

What about the GI% [9] of the same compound?
The GI% was “— (— GI% is below 15%)”.

What about the GI% [10] of the same compound?
The GI% was “— (— GI% is below 15%)”.

And the GI% [11]?
Its GI% is “— (— GI% is below 15%)”.

What about the GI% [12] of the same compound?
Its GI% is “— (— GI% is below 15%)”.

What about the GI% [13] of the same compound?
Its GI% is “— (— GI% is below 15%)”.

And the GI% [14]?
The GI% was “— (— GI% is below 15%)”.

What about the GI% [15] of the same compound?
The GI% was “— (— GI% is below 15%)”.

And the GI% [16]?
Its GI% is “— (— GI% is below 15%)”.

And the GI% [17]?
Its GI% is “— (— GI% is below 15%)”.

What about the GI% [18] of the same compound?
Its GI% is “— (— GI% is below 15%)”.

What about the GI% [19] of the same compound?
Its GI% is “— (— GI% is below 15%)”.

And the GI% [20]?
Its GI% is “— (— GI% is below 15%)”.

What about the GI% [21] of the same compound?
The GI% was “— (— GI% is below 15%)”.

What about the GI% [22] of the same compound?
Its GI% is “— (— GI% is below 15%)”.

And the GI% [23]?
The GI% was “— (— GI% is below 15%)”.

What about the GI% [24] of the same compound?
The GI% was “— (— GI% is below 15%)”.

What about the GI% [25] of the same compound?
Its GI% is “— (— GI% is below 15%)”.

What about the GI% [26] of the same compound?
The GI% was “— (— GI% is below 15%)”.

And the GI% [27]?
The GI% was “— (— GI% is below 15%)”.

And the GI% [28]?
Its GI% is “— (— GI% is below 15%)”.

What about the GI% [29] of the same compound?
The GI% was “— (— GI% is below 15%)”.

What about the GI% [30] of the same compound?
Its GI% is “— (— GI% is below 15%)”.

And the GI% [31]?
Its GI% is “— (— GI% is below 15%)”.

What about the GI% [32] of the same compound?
The GI% was “— (— GI% is below 15%)”.

And the GI% [33]?
The GI% was “— (— GI% is below 15%)”.

And the GI% [34]?
The GI% was “— (— GI% is below 15%)”.

What about the GI% [35] of the same compound?
Its GI% is “— (— GI% is below 15%)”.

What about the GI% [36] of the same compound?
The GI% was “— (— GI% is below 15%)”.

What about the GI% [37] of the same compound?
The GI% was “— (— GI% is below 15%)”.

What about the GI% [38] of the same compound?
The GI% was “— (— GI% is below 15%)”.

What about the GI% [39] of the same compound?
Its GI% is “— (— GI% is below 15%)”.

What about the GI% [40] of the same compound?
Its GI% is “— (— GI% is below 15%)”.

What about the GI% [41] of the same compound?
Its GI% is “— (— GI% is below 15%)”.

And the inhibition at 10 µM [42]?
The inhibition at 10 µM was less than 0%.

What about the GI% [43] of the same compound?
Its GI% is “— (— GI% is below 15%)”.

What about the GI% [44] of the same compound?
The GI% was “— (— GI% is below 15%)”.

And the GI% [45]?
The GI% was “— (— GI% is below 15%)”.

What about the GI% [46] of the same compound?
Its GI% is “— (— GI% is below 15%)”.

And the GI% [47]?
Its GI% is “— (— GI% is below 15%)”.

What about the GI% [48] of the same compound?
Its GI% is “— (— GI% is below 15%)”.

What about the GI% [49] of the same compound?
The GI% was “— (— GI% is below 15%)”.

What about the GI% [50] of the same compound?
Its GI% is “— (— GI% is below 15%)”.

And the GI% [51]?
The GI% was “— (— GI% is below 15%)”.

And the GI% [52]?
Its GI% is “— (— GI% is below 15%)”.

What about the GI% [53] of the same compound?
Its GI% is “— (— GI% is below 15%)”.

What about the GI% [54] of the same compound?
The GI% was “— (— GI% is below 15%)”.

And the GI% [55]?
The GI% was “— (— GI% is below 15%)”.
